Laboratory results as given in patent US9822099B2, “Triazole derivatives” (priority 2013, dated 2017).
Marks after values point to notes of the source that are not given here.

tested on: Septoria tritici; experiment: Example D: in vivo preventive test on Septoria tritici (leaf spot on wheat); conditions: 100 ppm of active ingredient; wheat plants, preventive spray; evaluated 24 days after inoculation
Protocol: (§1) The young plants of wheat are treated by spraying the active ingredient prepared as described above. Control plants are treated only with an aqueous solution of acetone/Dimethyl sulfoxide/Tween®. After 24 hours, the plants are contaminated by spraying the leaves with an aqueous suspension of Septoria tritici spores.

| Compound | Eff. % [%] |
| --- | --- |
| OC(Cc1ccccc1F)(Cc1ccncc1Cl)Cn1cncn1 (centres unmarked) [Example I-12] | 88 |
| OC(Cc1cccc(Cl)c1)(Cc1ccncc1Cl)Cn1cncn1 (centres unmarked) [Example I-15] | 94 |
| OC(Cc1cccc(Cl)c1)(Cc1ccncc1F)Cn1cncn1 (centres unmarked) [Example I-22] | 88 |
| OC(Cc1cc(Cl)nc(Cl)c1)(Cn1cncn1)C1(Cl)CC1 (centres unmarked) [Example I-26] | 97 |

same assay, conditions: 500 ppm of active ingredient; wheat plants, preventive spray; evaluated 24 days after inoculation

| Compound | Eff. % [%] |
| --- | --- |
| Cc1cc(C(O)(Cc2ccncc2Cl)Cn2cncn2)nn1C (racemic) [Example I-66] | 92 |
| OC(Cc1ccccc1F)(Cc1cc(Cl)ncc1F)Cn1cncn1 (racemic) [Example I-73] | 100 |
| OC(Cc1cccc(Cl)c1)(Cc1cc(Cl)ncc1F)Cn1cncn1 (racemic) [Example I-74] | 100 |
| OC(Cc1ccccc1F)(Cc1ccnc(Cl)c1F)Cn1cncn1 (racemic) [Example I-85] | 78 |
| OC(Cc1ccnc(Cl)c1F)(Cn1cncn1)c1ccc(Cl)nc1 (racemic) [Example I-86] | 72 |

tested on: Sphaerotheca fuliginea; experiment: Example E: in vivo preventive test on Sphaerotheca fuliginea (powdery mildew on cucurbits); conditions: 100 ppm of active ingredient; gherkin plants, preventive spray; evaluated 15 days after inoculation
Protocol: as §1, with “gherkin” for “wheat”, “Sphaerotheca fuliginea” for “Septoria tritici”

| Compound | Eff. % [%] |
| --- | --- |
| OC(Cc1cncc(Cl)n1)(Cn1cncn1)C1(Cl)CC1 (centres unmarked) [Example I-9] | 94 |
| Cc1cnc(CC(O)(Cn2cncn2)C2(Cl)CC2)c(Cl)n1 (centres unmarked) [Example I-10] | 75 |
| OC(Cc1cnccn1)(Cn1cncn1)C1(Cl)CC1 (centres unmarked) [Example I-11] | 79 |
| OC(Cc1ccccc1F)(Cc1ccncc1Cl)Cn1cncn1 (centres unmarked) [Example I-12] | 100 |
| OC(Cc1ccncc1Cl)(Cn1cncn1)c1ccc(Cl)nc1 (centres unmarked) [Example I-13] | 94 |
| OC(Cc1cccc(Cl)c1)(Cc1ccncc1Cl)Cn1cncn1 (centres unmarked) [Example I-15] | 98 |
| OC(Cc1cc(Cl)nc(Cl)c1)(Cn1cncn1)C1(Cl)CC1 (centres unmarked) [Example I-26] | 100 |
| OC(Cc1ccnc(Cl)c1)(Cn1cncn1)c1cccnc1Cl (centres unmarked) [Example I-34] | 100 |
| OC(Cc1ccnc(Cl)c1)(Cc1ccccc1F)Cn1cncn1 (centres unmarked) [Example I-35] | 78 |
| OC(Cc1ccnc(Cl)c1)(Cn1cncn1)c1ccc(Cl)nc1 (centres unmarked) [Example I-38] | 100 |
| OC(Cc1cc(Cl)ncc1F)(Cn1cncn1)c1ccc(Cl)nc1 (centres unmarked) [Example I-42] | 98 |
| OC(Cc1cc(Cl)ncc1F)(Cn1cncn1)c1cccnc1Cl (centres unmarked) [Example I-43] | 100 |

same assay, conditions: 500 ppm of active ingredient; gherkin plants, preventive spray; evaluated 15 days after inoculation

| Compound | Eff. % [%] |
| --- | --- |
| Cc1cc(C(O)(Cc2ccncc2Cl)Cn2cncn2)nn1C (racemic) [Example I-66] | 80 |
| OC(Cc1ccccc1F)(Cc1cc(Cl)ncc1F)Cn1cncn1 (racemic) [Example I-73] | 100 |
| OC(Cc1cccc(Cl)c1)(Cc1cc(Cl)ncc1F)Cn1cncn1 (racemic) [Example I-74] | 100 |
| OC(Cc1ccccc1F)(Cc1ccnc(Cl)c1F)Cn1cncn1 (racemic) [Example I-85] | 89 |

tested on: Uromyces appendiculatus; experiment: Example F: in vivo preventive test on Uromyces appendiculatus (bean rust); conditions: 100 ppm of active ingredient; bean plants, preventive spray; evaluated 11 days after inoculation
Protocol: as §1, with “bean” for “wheat”, “Uromyces appendiculatus” for “Septoria tritici”

| Compound | Eff. % [%] |
| --- | --- |
| OC(Cc1cnccn1)(Cn1cncn1)C1(Cl)CC1 (centres unmarked) [Example I-11] | 75 |
| OC(Cc1ccncc1Cl)(Cn1cncn1)c1ccc(Cl)nc1 (centres unmarked) [Example I-13] | 95 |

tested on: not given; experiment: not given; conditions: method [a]: LC-MS at pH 2.7, 0.1% formic acid in water / acetonitrile gradient

| Compound | LogP |
| --- | --- |
| O=C(Cc1ccc2ccccc2n1)C1(Cl)CC1 [Example V-1] | 3.39^[a] |
| O=C(Cc1ncccc1Cl)C1(Cl)CC1 [Example V-2] | 2.40^[a] |
| O=C(Cc1ccncc1Cl)C1(Cl)CC1 [Example V-4] | 2.13^[a] |
| O=C(Cc1cc(Cl)nc(Cl)c1)C1(Cl)CC1 [Example V-5] | 3.25^[a] |
| O=C(Cc1ccc(Cl)nc1)C1(Cl)CC1 [Example V-6] | 2.34^[a] |
| O=C(Cc1ccncc1Cl)C1(F)CC1 [Example V-7] | 1.76^[a] |
| CC(C)(F)C(=O)Cc1ccncc1Cl [Example V-8] | 1.97^[a] |
| CC1(C(=O)Cc2cccnc2Cl)CC1 [Example V-9] | 1.96^[a] |
| O=C(Cc1cccnc1Cl)C1(c2ccccc2)CC1 [Example V-10] | 3.00^[a] |
| CC1(C(=O)Cc2ccncc2Cl)CC1 [Example V-11] | 1.85^[a] |
| CC1(C(=O)Cc2ccncc2Cl)CCCCC1 [Example V-12] | 3.23^[a] |
| O=C(Cc1cnc2ccccc2c1)C1(Cl)CC1 [Example V-13] | 1.60^[a] |
| O=C(Cc1cccnc1F)C1(Cl)CC1 [Example V-16] | 2.07^[a] |
| O=C(Cc1ccc(Cl)nc1Cl)C1(Cl)CC1 [Example V-17] | 3.19^[a] |
| Cc1cccc2cc(CC(=O)C3(Cl)CC3)c(Cl)nc12 [Example V-18] | 4.14^[a] |
| O=C(Cc1cccnc1)C1(Cl)CC1 [Example V-19] | 0.23^[a] |
| O=C(Cc1c(Cl)ccnc1Cl)C1(Cl)CC1 [Example V-20] | 2.96^[a] |
| O=C(Cc1cc(Cl)cnc1Cl)C1(Cl)CC1 [Example V-21] | 3.12^[a] |
| ClC1(C2(Cc3ccc4ccccc4n3)CO2)CC1 (centres unmarked) [XII-1] | 1.74^[a] |
| Clc1ccc(CC2(C3(Cl)CC3)CO2)cn1 (centres unmarked) [XII-2] | 2.84 |
| Clc1cccnc1CC1(C2(Cl)CC2)CO1 (centres unmarked) [XII-4] | 2.69^[a] |
| Clc1ncccc1CC1(C2(Cl)CC2)CO1 (centres unmarked) [XII-5] | 2.69^[a] |
| Fc1cnccc1CC1(C2(Cl)CC2)CO1 (centres unmarked) [XII-6] | 2.13^[a] |
| Fc1cnccc1CC1(C2(F)CC2)CO1 (centres unmarked) [XII-7] | 1.63^[a] |

same assay, conditions: method [b]: LC-MS at pH 7.8, 0.001 molar ammonium hydrogen carbonate in water / acetonitrile gradient

| Compound | LogP |
| --- | --- |
| O=C(Cc1ccc(Cl)nc1)C1(Cl)CC1 [Example V-6] | 2.30^[b]; |
| Clc1ccc(CC2(C3(Cl)CC3)CO2)cn1 (centres unmarked) [XII-2] | 2.83 |

same assay, conditions: pH 2.7

| Compound | LogP |
| --- | --- |
| Cc1cc(C(O)(Cc2ccncc2Cl)Cn2cncn2)nn1C (racemic) [Example I-66] | 0.84^[a] |
| OC(Cc1ccccc1F)(Cc1cc(Cl)ncc1F)Cn1cncn1 (racemic) [Example I-73] | 2.34^[a] |
| OC(Cc1cccc(Cl)c1)(Cc1cc(Cl)ncc1F)Cn1cncn1 (racemic) [Example I-74] | 2.69^[a] |
| OC(Cc1ccccc1F)(Cc1ccnc(Cl)c1F)Cn1cncn1 (racemic) [Example I-85] | 1.73^[a] |
| OC(Cc1ccnc(Cl)c1F)(Cn1cncn1)c1ccc(Cl)nc1 (racemic) [Example I-86] | 1.23^[a] |
| OC(Cc1cncc(Cl)n1)(Cn1cncn1)C1(Cl)CC1 (centres unmarked) [Example I-9] | 1.72^[a] |
| Cc1cnc(CC(O)(Cn2cncn2)C2(Cl)CC2)c(Cl)n1 (centres unmarked) [Example I-10] | 2.05^[a] |
| OC(Cc1cnccn1)(Cn1cncn1)C1(Cl)CC1 (centres unmarked) [Example I-11] | 1.13^[a] |
| OC(Cc1ccccc1F)(Cc1ccncc1Cl)Cn1cncn1 (centres unmarked) [Example I-12] | 1.96^[a] |
| OC(Cc1ccncc1Cl)(Cn1cncn1)c1ccc(Cl)nc1 (centres unmarked) [Example I-13] | 1.26^[a] |
| OC(Cc1cccc(Cl)c1)(Cc1ccncc1Cl)Cn1cncn1 (centres unmarked) [Example I-15] | 2.27^[a] |
| OC(Cc1cccc(Cl)c1)(Cc1ccncc1F)Cn1cncn1 (centres unmarked) [Example I-22] | 2.00^[a] |
| OC(Cc1cc(Cl)nc(Cl)c1)(Cn1cncn1)C1(Cl)CC1 (centres unmarked) [Example I-26] | 2.54^[a] |
| OC(Cc1ccnc(Cl)c1)(Cn1cncn1)c1cccnc1Cl (centres unmarked) [Example I-34] | 1.35^[a] |
| OC(Cc1ccnc(Cl)c1)(Cc1ccccc1F)Cn1cncn1 (centres unmarked) [Example I-35] | 2.06^[a] |
| OC(Cc1ccnc(Cl)c1)(Cn1cncn1)c1ccc(Cl)nc1 (centres unmarked) [Example I-38] | 1.38^[a] |
| OC(Cc1cc(Cl)ncc1F)(Cn1cncn1)c1ccc(Cl)nc1 (centres unmarked) [Example I-42] | 1.60^[a] |
| OC(Cc1cc(Cl)ncc1F)(Cn1cncn1)c1cccnc1Cl (centres unmarked) [Example I-43] | 1.57^[a] |
